# Data published in article PMC5218480 (PLoS ONE, 2017).
# System: MV-4-11 cells
# Test: Gene expression microarray analysis (Affymetrix PrimeView) and GSEA
# Type: cell-based, human
# Parameters: RFU PODN (11730768_x_at) / Fold change /veh PODN (11730768_x_at) / RFU LINC00158 (11744669_a_at) / Fold change /veh LINC00158 (11744669_a_at) / RFU DUSP10 (11751237_a_at) / Fold change /veh DUSP10 (11751237_a_at) / RFU ID3 (11757404_x_at) / Fold change /veh ID3 (11757404_x_at) / RFU PLEKHG5 (11737974_s_at) / Fold change /veh PLEKHG5 (11737974_s_at) / RFU LRRC4B (11730491_at) / Fold change /veh LRRC4B (11730491_at) / RFU GIMAP4 (11747438_a_at) / Fold change /veh GIMAP4 (11747438_a_at) / RFU KRT8 (11758183_x_at) / Fold change /veh KRT8 (11758183_x_at) / RFU CNN1 (11734310_a_at) / Fold change /veh CNN1 (11734310_a_at) / RFU VPS37D (11726825_at) / Fold change /veh VPS37D (11726825_at) / RFU C10orf10 (11716522_x_at) / Fold change /veh C10orf10 (11716522_x_at) / RFU KIR2DL2 /// KIR2DL4 /// KIR2DL5A /// KIR2DL5B /// KIR2DS1 /// KIR2DS2 /// KIR2DS3 /// KIR2DS4 /// KIR3DL3 /// KIR3DL3 /// KIR3DS1 (11738374_at) / Fold change /veh KIR2DL2 /// KIR2DL4 /// KIR2DL5A /// KIR2DL5B /// KIR2DS1 /// KIR2DS2 /// KIR2DS3 /// KIR2DS4 /// KIR3DL3 /// KIR3DL3 /// KIR3DS1 (11738374_at) / RFU C1QL1 (11718748_at) / Fold change /veh C1QL1 (11718748_at) / RFU TMPRSS4 (11747572_a_at) / Fold change /veh TMPRSS4 (11747572_a_at) / RFU HAMP (11756126_x_at) / Fold change /veh HAMP (11756126_x_at) / RFU RNFT2 (11725882_a_at) / Fold change /veh RNFT2 (11725882_a_at) / RFU NR4A2 (11747474_a_at) / Fold change /veh NR4A2 (11747474_a_at) / RFU ABCC12 (11746883_a_at) / Fold change /veh ABCC12 (11746883_a_at) / RFU TMEM136 (11760407_x_at) / Fold change /veh TMEM136 (11760407_x_at) / RFU CLDN22 /// WWC2 (11732394_at) / Fold change /veh CLDN22 /// WWC2 (11732394_at) / RFU HLA-DPB1 (11760878_x_at) / Fold change /veh HLA-DPB1 (11760878_x_at) / RFU SPINT1 (11716480_a_at) / Fold change /veh SPINT1 (11716480_a_at) / RFU GAP43 (11754022_s_at) / Fold change /veh GAP43 (11754022_s_at) / RFU A4GNT (11735810_at) / Fold change /veh A4GNT (11735810_at) / RFU PRB3 (11715151_x_at) / Fold change /veh PRB3 (11715151_x_at) / RFU TUBB4B (11761932_at) / Fold change /veh TUBB4B (11761932_at) / RFU CAPN14 (11732068_a_at) / Fold change /veh CAPN14 (11732068_a_at) / RFU TMCC2 (11721928_a_at) / Fold change /veh TMCC2 (11721928_a_at) / RFU IRGQ (11745062_a_at) / Fold change /veh IRGQ (11745062_a_at) / RFU FAM174B (11720279_a_at) / Fold change /veh FAM174B (11720279_a_at) / RFU TMPRSS4 (11748680_a_at) / Fold change /veh TMPRSS4 (11748680_a_at) / RFU FAM212B (11763350_a_at) / Fold change /veh FAM212B (11763350_a_at) / RFU PLEKHG5 (11743358_a_at) / Fold change /veh PLEKHG5 (11743358_a_at) / RFU ZSCAN30 (11745921_a_at) / Fold change /veh ZSCAN30 (11745921_a_at) / RFU CMKLR1 (11741424_a_at) / Fold change /veh CMKLR1 (11741424_a_at) / RFU LOC101060620 /// MAPK8IP1 (11723275_at) / Fold change /veh LOC101060620 /// MAPK8IP1 (11723275_at) / RFU SPTSSB (11747773_x_at) / Fold change /veh SPTSSB (11747773_x_at) / RFU PRSS12 (11739890_at) / Fold change /veh PRSS12 (11739890_at) / RFU BIN1 (11741810_x_at) / Fold change /veh BIN1 (11741810_x_at) / RFU WNT11 (11732464_a_at) / Fold change /veh WNT11 (11732464_a_at) / RFU C10orf10 (11716521_a_at) / Fold change /veh C10orf10 (11716521_a_at) / RFU C5orf56 (11738089_at) / Fold change /veh C5orf56 (11738089_at) / RFU CYB561 (11721691_x_at) / Fold change /veh CYB561 (11721691_x_at) / RFU ANKRD19P (11752326_a_at) / Fold change /veh ANKRD19P (11752326_a_at) / RFU OR2T12 /// OR2T33 /// OR2T8 (11738714_s_at) / Fold change /veh OR2T12 /// OR2T33 /// OR2T8 (11738714_s_at) / RFU VCAN (11748164_a_at) / Fold change /veh VCAN (11748164_a_at) / RFU JSRP1 (11732532_at) / Fold change /veh JSRP1 (11732532_at) / RFU KRTAP10-11 (11738290_x_at) / Fold change /veh KRTAP10-11 (11738290_x_at) / RFU MYO3A (11730013_a_at) / Fold change /veh MYO3A (11730013_a_at) / RFU EBF3 (11725865_a_at) / Fold change /veh EBF3 (11725865_a_at) / RFU CAMK2N1 (11719241_x_at) / Fold change /veh CAMK2N1 (11719241_x_at) / RFU C5orf56 (11738088_a_at) / Fold change /veh C5orf56 (11738088_a_at) / RFU OLFML3 (11715873_a_at) / Fold change /veh OLFML3 (11715873_a_at) / RFU LOC100653217 /// NTM (11731650_a_at) / Fold change /veh LOC100653217 /// NTM (11731650_a_at) / RFU MAPK11 (11762145_a_at) / Fold change /veh MAPK11 (11762145_a_at) / RFU FIZ1 (11724087_x_at) / Fold change /veh FIZ1 (11724087_x_at) / RFU OASL (11726364_x_at) / Fold change /veh OASL (11726364_x_at) / RFU SOX15 (11748057_x_at) / Fold change /veh SOX15 (11748057_x_at) / RFU CD79A (11719716_a_at) / Fold change /veh CD79A (11719716_a_at) / RFU HIST1H1D (11736915_at) / Fold change /veh HIST1H1D (11736915_at) / RFU CASKIN2 (11723855_a_at) / Fold change /veh CASKIN2 (11723855_a_at) / RFU LOC730098 (11760151_x_at) / Fold change /veh LOC730098 (11760151_x_at) / RFU OR4N2 (11742367_at) / Fold change /veh OR4N2 (11742367_at) / RFU PRRT2 (11749266_a_at) / Fold change /veh PRRT2 (11749266_a_at) / RFU SNX32 (11753110_a_at) / Fold change /veh SNX32 (11753110_a_at) / RFU CDHR5 (11726645_a_at) / Fold change /veh CDHR5 (11726645_a_at) / RFU RCAN1 (11760418_a_at) / Fold change /veh RCAN1 (11760418_a_at) / RFU FAM167A (11723789_a_at) / Fold change /veh FAM167A (11723789_a_at) / RFU FAM26E (11764081_at) / Fold change /veh FAM26E (11764081_at) / RFU ISYNA1 (11749810_s_at) / Fold change /veh ISYNA1 (11749810_s_at) / RFU ACY1 (11761880_at) / Fold change /veh ACY1 (11761880_at) / RFU 11764098_at / Fold change /veh 11764098_at / RFU SAMD14 (11745864_x_at) / Fold change /veh SAMD14 (11745864_x_at) / RFU NPB (11741838_a_at) / Fold change /veh NPB (11741838_a_at) / RFU TMPRSS6 (11731388_a_at) / Fold change /veh TMPRSS6 (11731388_a_at) / RFU KRTAP10-2 (11738614_at) / Fold change /veh KRTAP10-2 (11738614_at) / RFU ARHGAP8 /// PRR5-ARHGAP8 (11727945_x_at) / Fold change /veh ARHGAP8 /// PRR5-ARHGAP8 (11727945_x_at) / RFU KRTAP5-7 /// NADSYN1 (11734609_at) / Fold change /veh KRTAP5-7 /// NADSYN1 (11734609_at) / RFU RASL12 (11751679_a_at) / Fold change /veh RASL12 (11751679_a_at) / RFU CDKN2B (11736163_a_at) / Fold change /veh CDKN2B (11736163_a_at) / RFU PRF1 (11729649_at) / Fold change /veh PRF1 (11729649_at) / RFU, ZNF638 /// ZNF638-IT1 / Fold change vs veh, ZNF638 /// ZNF638-IT1 / RFU, PANK3 / Fold change vs veh, PANK3 / RFU, SH3YL1 / Fold change vs veh, SH3YL1 / RFU, ZEB2 / Fold change vs veh, ZEB2 / RFU, NRIP1 / Fold change vs veh, NRIP1 / RFU, PTTG1IP / Fold change vs veh, PTTG1IP / RFU, CAPN2 / Fold change vs veh, CAPN2 / RFU, MED14 / Fold change vs veh, MED14 / RFU, SNORA58 / Fold change vs veh, SNORA58 / RFU, C1orf63 / Fold change vs veh, C1orf63 / RFU, LRRFIP1 / Fold change vs veh, LRRFIP1 / RFU, NDUFAF7 / Fold change vs veh, NDUFAF7 / RFU, SLC12A2 / Fold change vs veh, SLC12A2 / RFU, IBTK / Fold change vs veh, IBTK / RFU, ESF1 / Fold change vs veh, ESF1 / Fold change vs veh, TMEM50B / RFU, TAOK1 / Fold change vs veh, TAOK1 / RFU, ACBD3 / Fold change vs veh, ACBD3 / RFU, TMA16 / Fold change vs veh, TMA16 / RFU, RWDD3 / Fold change vs veh, RWDD3 / RFU, BCAT1 / Fold change vs veh, BCAT1 / RFU, EDEM3 / Fold change vs veh, EDEM3 / RFU, TMEM33 / Fold change vs veh, TMEM33 / RFU, WDR75 / Fold change vs veh, WDR75 / RFU, AHCTF1 / Fold change vs veh, AHCTF1 / RFU, TFRC / Fold change vs veh, TFRC / RFU, ZDHHC17 / Fold change vs veh, ZDHHC17 / RFU, NOM1 / Fold change vs veh, NOM1 / RFU, ARL8B / Fold change vs veh, ARL8B / RFU, ZBTB11 / Fold change vs veh, ZBTB11 / RFU, TAMM41 / Fold change vs veh, TAMM41 / RFU, KIAA1704 /// LOC100996395 / Fold change vs veh, KIAA1704 /// LOC100996395 / RFU, ING1 / Fold change vs veh, ING1 / RFU, TRMT61B / Fold change vs veh, TRMT61B / RFU, FUBP3 / Fold change vs veh, FUBP3 / RFU, TP53 / Fold change vs veh, TP53 / RFU, TNKS2 / Fold change vs veh, TNKS2 / RFU, ZFP14 / Fold change vs veh, ZFP14 / RFU, ACTR2 / Fold change vs veh, ACTR2 / RFU, PPP3R1 / Fold change vs veh, PPP3R1 / RFU, PIK3R1 / Fold change vs veh, PIK3R1 / RFU, HNRNPA1 / Fold change vs veh, HNRNPA1 / RFU, RNF170 / Fold change vs veh, RNF170 / RFU, ZNF28 / Fold change vs veh, ZNF28 / RFU, RNGTT / Fold change vs veh, RNGTT / RFU, OGT / Fold change vs veh, OGT / RFU, BRD1 / Fold change vs veh, BRD1 / RFU, MARS / Fold change vs veh, MARS / RFU, ZNF655 / Fold change vs veh, ZNF655 / RFU, FAHD1 / Fold change vs veh, FAHD1 / RFU, BDP1 / Fold change vs veh, BDP1 / RFU, LRRCC1 / Fold change vs veh, LRRCC1 / RFU, ARID1A / Fold change vs veh, ARID1A / RFU, ZNF146 / Fold change vs veh, ZNF146 / RFU, ZNF330 / Fold change vs veh, ZNF330 / RFU, GPN3 / Fold change vs veh, GPN3 / RFU, C9orf123 / Fold change vs veh, C9orf123 / RFU, N4BP2L2 / Fold change vs veh, N4BP2L2 / RFU, ARFIP1 / Fold change vs veh, ARFIP1 / RFU, FAM179B / Fold change vs veh, FAM179B / RFU, BCL10 / Fold change vs veh, BCL10 / RFU, UHRF1BP1L / Fold change vs veh, UHRF1BP1L / RFU, BET1 / Fold change vs veh, BET1 / RFU, CNOT2 / Fold change vs veh, CNOT2 / RFU, ZNF268 / Fold change vs veh, ZNF268 / Fold change vs veh, ZNF507 / RFU, DGCR2 / Fold change vs veh, DGCR2 / RFU, WDSUB1 / Fold change vs veh, WDSUB1 / Fold change vs veh, HSP90B1 /// MIR3652 / RFU, ADSS / Fold change vs veh, ADSS / RFU, GK / Fold change vs veh, GK / RFU, ZNF148 / Fold change vs veh, ZNF148 / RFU, TAF9 / Fold change vs veh, TAF9 / RFU, SLC1A5 / Fold change vs veh, SLC1A5 / RFU, SLMO2 / Fold change vs veh, SLMO2 / RFU, ABCC4 / Fold change vs veh, ABCC4 / RFU, LOC101060439 /// RAP1B / Fold change vs veh, LOC101060439 /// RAP1B / RFU, RFX7 / Fold change vs veh, RFX7 / RFU, GTPBP10 / Fold change vs veh, GTPBP10 / RFU, CNEP1R1 / Fold change vs veh, CNEP1R1 / RFU, BIVM-ERCC5 /// ERCC5 / Fold change vs veh, BIVM-ERCC5 /// ERCC5 / RFU, ILF3 / Fold change vs veh, ILF3 / RFU 11762660_at / Fold change /veh 11762660_at / RFU VCAN (11757783_s_at) / Fold change /veh VCAN (11757783_s_at) / RFU DDX43 (11728927_at) / Fold change /veh DDX43 (11728927_at) / RFU KRT8 (11758188_x_at) / Fold change /veh KRT8 (11758188_x_at) / RFU NKD1 (11759106_at) / Fold change /veh NKD1 (11759106_at) / RFU SRD5A1 (11742802_a_at) / Fold change /veh SRD5A1 (11742802_a_at) / RFU TPSAB1 /// TPSB2 (11721975_s_at) / Fold change /veh TPSAB1 /// TPSB2 (11721975_s_at) / RFU GSTM3 (11746129_a_at) / Fold change /veh GSTM3 (11746129_a_at) / RFU IL23R (11737362_x_at) / Fold change /veh IL23R (11737362_x_at) / RFU TMEM51 (11727254_a_at) / Fold change /veh TMEM51 (11727254_a_at) / RFU PIWIL2 (11732686_x_at) / Fold change /veh PIWIL2 (11732686_x_at) / RFU ORM1 (11744905_x_at) / Fold change /veh ORM1 (11744905_x_at) / RFU CCDC152 (11743942_at) / Fold change /veh CCDC152 (11743942_at) / RFU ECM1 (11717891_a_at) / Fold change /veh ECM1 (11717891_a_at) / RFU IL23R (11748794_a_at) / Fold change /veh IL23R (11748794_a_at) / RFU TNFAIP8L3 (11732012_x_at) / Fold change /veh TNFAIP8L3 (11732012_x_at) / RFU MBOAT4 (11741988_at) / Fold change /veh MBOAT4 (11741988_at) / RFU 11764193_at / Fold change /veh 11764193_at / RFU TMEM53 (11763286_at) / Fold change /veh TMEM53 (11763286_at) / RFU MAGEB2 (11727129_at) / Fold change /veh MAGEB2 (11727129_at) / RFU TMEM200A (11744735_a_at) / Fold change /veh TMEM200A (11744735_a_at) / RFU CCDC152 (11751479_a_at) / Fold change /veh CCDC152 (11751479_a_at) / RFU FAM211A (11726209_a_at) / Fold change /veh FAM211A (11726209_a_at) / RFU RGS16 (11746705_a_at) / Fold change /veh RGS16 (11746705_a_at) / RFU VCAN (11755009_s_at) / Fold change /veh VCAN (11755009_s_at) / RFU RHOB (11743442_s_at) / Fold change /veh RHOB (11743442_s_at) / RFU RGS16 (11720943_a_at) / Fold change /veh RGS16 (11720943_a_at) / RFU RGS16 (11720944_at) / Fold change /veh RGS16 (11720944_at) / RFU, VPS4B / Fold change vs veh, VPS4B / RFU, CREB1 / Fold change vs veh, CREB1 / RFU, DNAJC13 / Fold change vs veh, DNAJC13 / RFU, GNAQ / Fold change vs veh, GNAQ / RFU, CDK5R1 / Fold change vs veh, CDK5R1 / RFU, ZRANB3 / Fold change vs veh, ZRANB3 / RFU, CUL4A / Fold change vs veh, CUL4A / RFU, CCNY / Fold change vs veh, CCNY / RFU, UFL1 / Fold change vs veh, UFL1 / RFU, COG3 / Fold change vs veh, COG3 / RFU, DIAPH2 / Fold change vs veh, DIAPH2 / RFU, SKA2 / Fold change vs veh, SKA2 / RFU, AFF3 / Fold change vs veh, AFF3 / RFU, LMF1 / Fold change vs veh, LMF1 / RFU, IPO11 / Fold change vs veh, IPO11 / RFU, DFFB / Fold change vs veh, DFFB / RFU, FOXP1 / Fold change vs veh, FOXP1 / RFU, CARD8 / Fold change vs veh, CARD8 / RFU, STRN3 / Fold change vs veh, STRN3 / RFU, ADK / Fold change vs veh, ADK / RFU, RASSF2 / Fold change vs veh, RASSF2 / RFU, WIPF1 / Fold change vs veh, WIPF1 / RFU, LARP1B / Fold change vs veh, LARP1B / RFU, RASA1 / Fold change vs veh, RASA1 / RFU, RB1 / Fold change vs veh, RB1 / RFU, PPFIA1 / Fold change vs veh, PPFIA1 / RFU, MAT2A / Fold change vs veh, MAT2A / RFU, CCT5 / Fold change vs veh, CCT5 / RFU, WDR92 / Fold change vs veh, WDR92 / RFU, CUX1 / Fold change vs veh, CUX1 / RFU, TTC7A / Fold change vs veh, TTC7A / RFU, TMEM135 / Fold change vs veh, TMEM135 / RFU, DEPTOR / Fold change vs veh, DEPTOR / RFU, CPM / Fold change vs veh, CPM / RFU, DNAJB6 / Fold change vs veh, DNAJB6 / RFU, CACNA2D3 / Fold change vs veh, CACNA2D3 / RFU, DTX4 / Fold change vs veh, DTX4 / RFU, TFCP2 / Fold change vs veh, TFCP2 / RFU, GMCL1 /// GMCL1P1 / Fold change vs veh, GMCL1 /// GMCL1P1 / RFU, AEBP2 / Fold change vs veh, AEBP2 / RFU, SNHG1 /// SNORD22 /// SNORD25 /// SNORD26 /// SNORD27 /// SNORD28 /// SNORD29 /// SNORD31 / Fold change vs veh, SNHG1 /// SNORD22 /// SNORD25 /// SNORD26 /// SNORD27 /// SNORD28 /// SNORD29 /// SNORD31 / Fold change (Aza/veh), C12orf56 (ProbeSet 11735607_a_at) / Fold change (ACY-1035/veh), C12orf56 (ProbeSet 11735607_a_at) / Fold change (Aza/veh), FGFR1OP (ProbeSet 11751329_s_at) / Fold change (ACY-1035/veh), FGFR1OP (ProbeSet 11751329_s_at) / Fold change (Aza/veh), VPS36 (ProbeSet 11739960_a_at) / Fold change (ACY-1035/veh), VPS36 (ProbeSet 11739960_a_at) / RFU SYPL1 (11715823_x_at) / Fold change /veh SYPL1 (11715823_x_at) / RFU IGFBP7 (11715501_s_at) / Fold change /veh IGFBP7 (11715501_s_at) / RFU REEP3 (11722064_at) / Fold change /veh REEP3 (11722064_at) / RFU IGLL1 (11728026_x_at) / Fold change /veh IGLL1 (11728026_x_at): dose or concentration left out as unconfirmed
# Settings: MV-4-11 cells, 48 hours
structure (smiles),measurement,value
Nc1ccc(-c2cccs2)cc1NC(=O)c1ccc2c(c1)cc(C1CC1)n2CCN1CCOCC1 [ACY-1035],Fold change /veh CMKLR1 (11741424_a_at),1.11
